Test results published in US11697648B2, “Fused pyrimidine pyridinone compounds as JAK inhibitors” (THERAVANCE BIOPHARMA R&D IP, LLC, priority 2019, dated 2023).

Key:
[1] = test system: oxazolone-induced colitis; test: Mouse model of oxazolone-induced colitis; assay type: in vivo, BALB/C mice
Description: Assay 6: Mouse Model of Oxazolone-Induced Colitis
Oxazolone-induced colitis is an experimental model that has a histological resemblance to human ulcerative colitis (Heller et al. Immunology, 2002, 17, 629-638). Adult BALB/C mice from Harlan were used in the assay. On day 1, animals were lightly anesthetized with isoflurane and the hairs between the shoulder were carefully removed before oxazolone (4%, 150 μL, 4:1 acetone: olive oil formulation) or vehicle solution was slowly applied for skin sensitization. Seven days after skin sensitization, the mice were fasted around 6 hours prior, anesthetized with ketamine/xylazine injection, and a 1 mL syringe equipped with a 3.5-F catheter, filled with oxazolone solution, was inserted carefully about 4 cm into the colon of the mouse. Following insertion, 50 μL of the oxazolone solution (0.8% in 1:1 ethanol:water formulation) was injected very slowly (over 30 sec using an injection pump) into the colon. Drug treatment (PO, QD or BID or TID) or vehicle was initiated a day prior to the oxazolone intrarectal (IR) challenge. Two-day post oxazolone intrarectal challenge, the disease was assessed by treatment-blinded experimenters for each mouse according to the criteria score: stool consistency score (0, normal; 2, loose; 4, diarrhea), gross bleeding score (0, absence; 2, blood tinged; 4, presence); Combined stool score endpoint=stool consistency score+stool blood score.
Select compounds were tested in the assay.

JAK3 = JAK3 (Homo sapiens (Human), UniProt P52333); test: Biochemical JAK3 kinase assay (LanthaScreen); settings: for JAK3 (pKi)-JAK1 (pKi): selectivity JAK3 over JAK1, difference of pKi
Procedure, shortened: (§1)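 GST-JAK + GFP-STAT1 peptide, HEPES pH 7.5/MgCl2/EGTA/Brij-35 buffer; cpd preincubation 1 h RT; ATP start, 1 h RT; stop with 10 mM EDTA + 2 nM Tb-anti-pSTAT1; TR-FRET 520/495. 4-parameter IC50 → pKi (Cheng-Prusoff).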

[2] = test system: IL-2 stimulated STAT5 phosphorylation in Tall-1 human T cell line (JAK3); test: Cellular JAK3 potency assay: inhibition of IL-2 stimulated pSTAT5 in Tall-1 T cells; assay type: cell-based; settings: IL-2 stimulated pSTAT5, Tall-1 T cells
Procedure, shortened: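 Tall-1 cells, 45,000 per well, preincubated 1 hour with compound at 37 °C, then stimulated 30 minutes with IL-2 at 300 ng/ml final. pSTAT5 (Tyr694/699) in lysates quantified by AlphaLISA SureFire Ultra. pIC50 derived from inhibition curves, given as mean with SD.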

JAK2 = JAK2 (Homo sapiens (Human), UniProt O60674); test: Biochemical JAK2 kinase assay (LanthaScreen)
Procedure, shortened: as §1

Sequence of JAK2 (O60674 whole entry): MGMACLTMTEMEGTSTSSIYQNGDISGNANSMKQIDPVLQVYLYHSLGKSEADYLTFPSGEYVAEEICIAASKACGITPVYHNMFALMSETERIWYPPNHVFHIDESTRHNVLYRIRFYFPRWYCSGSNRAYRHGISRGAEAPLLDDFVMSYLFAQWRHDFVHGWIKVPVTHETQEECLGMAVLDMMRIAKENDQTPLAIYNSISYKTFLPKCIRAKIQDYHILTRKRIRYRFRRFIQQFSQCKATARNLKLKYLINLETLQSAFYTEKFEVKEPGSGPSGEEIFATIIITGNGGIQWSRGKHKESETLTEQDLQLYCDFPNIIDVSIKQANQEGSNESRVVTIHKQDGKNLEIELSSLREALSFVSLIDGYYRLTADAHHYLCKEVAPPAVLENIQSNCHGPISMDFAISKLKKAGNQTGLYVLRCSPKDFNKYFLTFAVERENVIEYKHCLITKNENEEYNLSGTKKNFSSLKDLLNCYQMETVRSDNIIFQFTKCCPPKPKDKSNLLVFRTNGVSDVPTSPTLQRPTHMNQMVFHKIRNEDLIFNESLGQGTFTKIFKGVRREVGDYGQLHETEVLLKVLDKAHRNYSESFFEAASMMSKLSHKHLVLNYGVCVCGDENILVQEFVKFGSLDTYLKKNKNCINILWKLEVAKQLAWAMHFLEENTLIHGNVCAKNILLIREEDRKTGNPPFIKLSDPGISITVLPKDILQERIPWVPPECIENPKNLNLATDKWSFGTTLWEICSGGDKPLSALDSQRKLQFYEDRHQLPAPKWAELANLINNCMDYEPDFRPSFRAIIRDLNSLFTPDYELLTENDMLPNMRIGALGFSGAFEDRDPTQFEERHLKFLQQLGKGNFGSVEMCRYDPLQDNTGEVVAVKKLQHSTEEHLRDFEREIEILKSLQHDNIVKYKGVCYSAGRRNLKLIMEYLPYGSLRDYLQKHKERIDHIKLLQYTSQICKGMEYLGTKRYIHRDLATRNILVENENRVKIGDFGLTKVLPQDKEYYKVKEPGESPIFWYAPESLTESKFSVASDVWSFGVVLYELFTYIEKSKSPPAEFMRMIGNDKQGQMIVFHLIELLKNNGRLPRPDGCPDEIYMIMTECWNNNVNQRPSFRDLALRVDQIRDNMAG
Sequence of JAK3 (P52333 whole entry): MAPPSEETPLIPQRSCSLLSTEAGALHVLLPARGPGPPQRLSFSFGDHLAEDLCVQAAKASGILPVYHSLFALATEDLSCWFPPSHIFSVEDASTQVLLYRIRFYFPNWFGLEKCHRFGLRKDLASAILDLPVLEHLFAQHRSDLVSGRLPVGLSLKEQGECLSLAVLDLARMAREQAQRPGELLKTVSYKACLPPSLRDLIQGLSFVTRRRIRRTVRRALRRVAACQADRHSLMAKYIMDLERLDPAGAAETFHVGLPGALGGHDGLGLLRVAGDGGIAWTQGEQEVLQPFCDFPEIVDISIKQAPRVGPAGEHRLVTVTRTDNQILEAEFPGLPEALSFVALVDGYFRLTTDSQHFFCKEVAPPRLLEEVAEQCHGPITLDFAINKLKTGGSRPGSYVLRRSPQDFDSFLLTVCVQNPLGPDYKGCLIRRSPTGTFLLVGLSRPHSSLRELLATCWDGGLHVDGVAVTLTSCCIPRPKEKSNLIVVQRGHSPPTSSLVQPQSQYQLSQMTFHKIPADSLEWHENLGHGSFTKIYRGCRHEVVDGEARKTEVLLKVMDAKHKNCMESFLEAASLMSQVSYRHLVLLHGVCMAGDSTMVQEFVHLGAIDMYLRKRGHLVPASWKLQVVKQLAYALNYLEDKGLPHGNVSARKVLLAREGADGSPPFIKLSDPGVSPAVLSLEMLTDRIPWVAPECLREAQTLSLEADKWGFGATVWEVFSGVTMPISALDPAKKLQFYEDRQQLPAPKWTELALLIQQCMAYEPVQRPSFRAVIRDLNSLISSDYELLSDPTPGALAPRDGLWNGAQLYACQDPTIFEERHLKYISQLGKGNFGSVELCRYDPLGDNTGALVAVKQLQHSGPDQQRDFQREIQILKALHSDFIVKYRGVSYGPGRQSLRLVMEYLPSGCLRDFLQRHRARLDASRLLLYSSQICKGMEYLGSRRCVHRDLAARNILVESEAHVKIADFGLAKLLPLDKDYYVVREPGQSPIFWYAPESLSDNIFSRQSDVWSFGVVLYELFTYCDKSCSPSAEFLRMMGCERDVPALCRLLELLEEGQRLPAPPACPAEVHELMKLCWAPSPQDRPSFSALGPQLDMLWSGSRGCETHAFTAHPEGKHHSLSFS

SMILES | combined stool score endpoint as compared with vehicle treated animals ([1]; dose of 1 mg/kg (PO, BID)) | combined stool score endpoint as compared with vehicle treated animals ([1]; dose of 3 mg/kg (PO, BID)) | JAK 3 (pKi) (JAK3) | JAK3 (pKi)-JAK1 (pKi) (JAK3) | Tall-1 (pIC50) [2] | JAK 2 (pKi) (JAK2)
C=CC(=O)N1CCN(CCn2c(=O)ccc3cnc(Nc4ccc(N5CCN(C)CC5)cc4)nc32)CC1 [Example 1, 8-(2-(4-acryloylpiperazin-1-yl)ethyl)-2-((4-(4-methylpiperazin-1-yl)phenyl)amino)pyrido[2,3-d]pyrimidin-7(8H)-one] | statistically significant decrease | statistically significant decrease | B (B represents pKi value between 9 and 10 (Ki between 1 nM and 0.1 nM)) | A (A represents a value of 3 or above) | B (B represents a pC50 value between 6.7 (included) and 7.5 (IC50 between 200 nM and 32 nM)) | E (E represents a pKi value of 7 or below (Ki of 100 nM or above))
C=CC(=O)N1CC(CCn2c(=O)ccc3cnc(Nc4ccc(N5CCN(C(C)=O)CC5)cc4)nc32)C1 [Example 2, 2-((4-(4-acetylpiperazin-1-yl)phenyl)amino)-8-(2-(1-acryloylazetidin-3-yl)ethyl)pyrido[2,3-d]pyrimidin-7(8H)-one] | statistically significant decrease | – | A (A represents a pKi value≥10 (Ki≤0.1 nM)) | A (A represents a value of 3 or above) | B (B represents a pC50 value between 6.7 (included) and 7.5 (IC50 between 200 nM and 32 nM)) | E (E represents a pKi value of 7 or below (Ki of 100 nM or above))
C=CC(=O)N1CCN(CCn2c(=O)ccc3cnc(Nc4ccc(N5CCN(C(=O)CCSC)CC5)cc4)nc32)CC1 [Example 4, 8-(2-(4-acryloylpiperazin-1-yl)ethyl)-2-((4-(4-(3-(methylthio)propanoyl)piperazin-1-yl)phenyl)amino)pyrido[2,3-d]pyrimidin-7(8H)-one] | statistically significant decrease | – | B (B represents pKi value between 9 and 10 (Ki between 1 nM and 0.1 nM)) | A (A represents a value of 3 or above) | B (B represents a pC50 value between 6.7 (included) and 7.5 (IC50 between 200 nM and 32 nM)) | E (E represents a pKi value of 7 or below (Ki of 100 nM or above))
C=CC(=O)N1CC(CCn2c(=O)ccc3cnc(Nc4cccc(CN5CCN(C(=O)N(C)C)CC5)c4)nc32)C1 [Example 5, 4-(3-((8-(2-(1-acryloylazetidin-3-yl)ethyl)-7-oxo-7,8-dihydropyrido[2,3-d]pyrimidin-2-yl)amino)benzyl)-N,N-dimethylpiperazine-1-carboxamide] | statistically significant decrease | statistically significant decrease | A (A represents a pKi value≥10 (Ki≤0.1 nM)) | A (A represents a value of 3 or above) | B (B represents a pC50 value between 6.7 (included) and 7.5 (IC50 between 200 nM and 32 nM)) | E (E represents a pKi value of 7 or below (Ki of 100 nM or above))
C=CC(=O)N1CC(CCn2c(=O)ccc3cnc(Nc4cccc(N5CCN(C(=O)CCSC)CC5)c4)nc32)C1 [Example 7, 8-(2-(1-acryloylazetidin-3-yl)ethyl)-2-((3-(4-(3-(methylthio)propanoyl)piperazin-1-yl)phenyl)amino)pyrido[2,3-d]pyrimidin-7(8H)-one] | statistically significant decrease | – | B (B represents pKi value between 9 and 10 (Ki between 1 nM and 0.1 nM)) | A (A represents a value of 3 or above) | B (B represents a pC50 value between 6.7 (included) and 7.5 (IC50 between 200 nM and 32 nM)) | E (E represents a pKi value of 7 or below (Ki of 100 nM or above))
C=CC(=O)N1CCN(CCn2c(=O)ccc3cnc(Nc4cnn(C)c4)nc32)[C@@H](CC)C1 [Example 12, (S)-8-(2-(4-acryloyl-2-ethylpiperazin-1-yl)ethyl)-2-((1-methyl-1H-pyrazol-4-yl)amino)pyrido[2,3-d]pyrimidin-7(8H)-one] | statistically significant decrease | – | B (B represents pKi value between 9 and 10 (Ki between 1 nM and 0.1 nM)) | A (A represents a value of 3 or above) | B (B represents a pC50 value between 6.7 (included) and 7.5 (IC50 between 200 nM and 32 nM)) | E (E represents a pKi value of 7 or below (Ki of 100 nM or above))
C=CC(=O)N1CC(CCn2c(=O)ccc3cnc(Nc4ccc(N5CCN(C(=O)CSC)CC5)cc4)nc32)C1 [Example 13, 8-(2-(1-acryloylazetidin-3-yl)ethyl)-2-((4-(4-(2-(methylthio)acetyl)piperazin-1-yl)phenyl)amino)pyrido[2,3-d]pyrimidin-7(8H)-one] | statistically significant decrease | statistically significant decrease | B (B represents pKi value between 9 and 10 (Ki between 1 nM and 0.1 nM)) | A (A represents a value of 3 or above) | B (B represents a pC50 value between 6.7 (included) and 7.5 (IC50 between 200 nM and 32 nM)) | E (E represents a pKi value of 7 or below (Ki of 100 nM or above))
